From paper PMC12623744 (Scientific Reports, 2025) come the findings set out here.

Positions of bridges follow the written chain, without caps; N, C: chain ends. Non-standard residues stand in square brackets, D forms with d. Residues, ends and D or L forms follow the SMILES beside them. Nle = CCCC[C@H](N)C(=O)O

The nature of data set [1]: Peptide stability in medium (Jurkat E6.1 cell supernatant). Type of data set: in vitro ADME. The conditions noted are these: human, Jurkat E6.1 cell supernatant (conditioned culture medium), Jurkat E6.1 cell supernatant (RPMI 1640, 10% FBS), 1.5 mg/mL peptide, 37 °C with stirring, RP-HPLC peak area vs peptide in water at time 0, triplicate. The method, then: The inhibitory effects of the peptides were also evaluated using cell line-based platform, but before performing this tests, the stability of peptides in medium used in co-culture and cytotoxicity towards cell lines used in the experiments had to be determined. After 24 h of incubation (the time when the peptides are incubated with cells), there is a clear difference in stability between peptides based on one of the interaction centres (light1 and 2 – stability is 88% and 77% respectively) and between those based on the other centre (light3, 4 and 3_E178L – stability ranging from 49% to 29%). However, all peptides, despite some degradation, are present in the sample during the experiment (Figure S5).
HVEM light1 light light light _E178L
Figure S8 . SpS binding check experiments for selected LIGHT-derived peptides and HVEM compared to negative control (HVEM protein without any ligand). Dotted line represents three times the standard deviation range. […]
experiments. […]
Peptide stability was assessed using the supernatant from the Jurkat E6.1 cell line. […] The samples were analyzed by reverse-phase high-performance liquid chromatography (RP-HPLC) on a Kromasil C8 column ([…] × 4.6 mm, 5 μm) using a gradient of 5% to 100% solvent B over 60 minutes. […]
The cytotoxic effects of the peptides were evaluated on two cell lines: Jurkat E6.1 and TCS-Ctrl (a modified BW5147 cell line). […]

Another data set has as its system HVEM/LIGHT complex. Description: Competitive ELISA, inhibition of HVEM/LIGHT complex formation. It counts as biochemical, human. As to conditions: coated HVEM-His 6 µg/mL, LIGHT-Fc 2 µg/mL, highest concentration tested (50 µM). The method, then:
To assess the inhibitory properties of the peptides the ELISA was conducted. Based on the obtained results, it can be concluded that the inhibitory properties of the peptides are strongly correlated with their affinity to HVEM as determined by theoretical methods, as well as with those measured by SpS.
ELISA was conducted using transparent polystyrene 96-well plates (Brand, Wertheim, Germany). Wells were coated with HVEM-His protein at concentration 6 µg/mL dissolved in PBS-T (100 µL per well) and incubated overnight at 4 °C. Unbound sites on the wells by HVEM were blocked with 5% bovine serum albumin (BSA) in PBS-T (200 µL per well). Peptides at three concentrations 50 µM, 12.5 µM, and 3.125 µM dissolved in PBS-T were added and incubated (200 µL per well). […] In the next step horseradish peroxidase (HRP)-conjugated goat antibody (Bio-Rad, Hercules, USA) at dilution 1:3000 in PBS-T (100µL per well) was applied. After each step, wells were washed five times with 200 µL of PBS-T. Incubations were carried out at 37 °C for 2 h, except for the antibody, which was incubated for 1 h. Finally, 200 µL of TMB substrate (Thermo Fisher Scientific,Waltham, MA, USA) was added, and after 15 min of incubation in the dark, absorbance was measured at 492 nm and 650 nm using an Infinite M200 Pro reader (Tecan, Switzerland). The negative control consisted of PBS-T buffer without peptides, while the positive control was mouse anti-human HVEM antibodies (1 µg/well, Bio-Rad, Hercules, CA, USA; #MCA6072GA). Each experiment was performed in three biological replicates, each consisting of three technical replicates and data were analyzed using one-way ANOVA with Dunnett’s post-hoc test in GraphPad Prism (San Diego, USA).
For orientation: ELISA stands for enzyme-linked immunosorbent assay.

Data set [2] has as its system HVEM/LIGHT interaction (NF-κB::eGFP activation). The data set is described as follows: Cellular reporter assay: JE6.1-NF-κB::eGFP HVEM reporter cells stimulated with TCS LIGHT. It counts as cell-based. As to conditions: relative to co-culture without peptides = 100%; highest tested concentration (50 µM chosen as highest); 24 h co-culture; three experiments in triplicate. An excerpt: Reporter cells expressing the HVEM protein (JE6.1-NF-κB::eGFP HVEM) and T cell stimulators expressing LIGHT (TCS LIGHT) were utilized in cellular assays and the principle of this cell-based assay has been described in detail in previous publication. In short, when the peptides inhibited the HVEM/LIGHT interaction, a reduction in NF-κB activation was observed, accompanied by a corresponding decrease in enhanced green fluorescent protein (eGFP) levels. The percentage of reporter cell activation was calculated relative to a control condition, which was reporter cell co-cultured with TCS without peptides.
The experiments utilized the JE6.1-NF-κB::eGFP HVEM (modified Jurkat), TCS LIGHT, TCS Crtl and TCS CD86 Ctrl cell lines (modified BW5147) which have been described in earlier studies^57,58. Jurkat E6.1 cell line (describe in Supplementary Materials) was purchased from Cell Line Service GmbH, while the JE6.1-NF-κB::eGFP HVEM, TCS LIGHT, TCS Crtl and TCS CD86 Ctrl cell lines are property of the laboratory of Prof. […] The plates were incubated for 20 min at 4 °C, washed with FACS buffer (PBS, 5–10% FBS, 0.1% NaN₃), and resuspended in 50 µL of fresh FACS buffer. eGFP expression was measured using a CytoFLEX flow cytometer (Beckman Coulter, USA). Data were analyzed using FlowJo v10.10 (FlowJo LLC, USA) and GraphPad Prism (San Diego, USA) with univariate ANOVA and Dunnett’s post-hoc test. […]
On the technique in general: In a reporter assay the amount or activity of a reporter protein is the signal.

On to `CCCC[C@H](NC(=O)[C@H](Cc1ccccc1)NC(=O)[C@H](C)NC(=O)CNC(=O)[C@@H]1CSSC[C@H](NC(=O)[C@@H](NC(=O)[C@@H](NC(=O)[C@H](CCC(=O)O)NC(=O)[C@H](CCC(=O)O)NC(=O)CNC(=O)[C@H](C)NC(=O)[C@H](CCC(=O)O)NC(C)=O)C(C)C)C(C)C)C(=O)N[C@@H](CCCNC(=N)N)C(=O)N[C@@H](C(C)C)C(=O)N[C@@H](CC(C)C)C(=O)N[C@@H](CC(=O)O)C(=O)N[C@@H](CCC(=O)O)C(=O)N[C@@H](CCCNC(=N)N)C(=O)N[C@@H](CC(C)C)C(=O)N[C@@H](C(C)C)C(=O)N[C@@H](CCCNC(=N)N)C(=O)N[C@@H](CC(C)C)C(=O)N[C@@H](CCCNC(=N)N)C(=O)N[C@@H](CC(=O)O)C(=O)NCC(=O)N[C@@H]([C@@H](C)O)C(=O)N[C@@H](CCCNC(=N)N)C(=O)N[C@@H](CO)C(=O)N[C@@H](Cc2ccc(O)cc2)C(=O)N1)C(=O)N[C@H](C(N)=O)C(C)C` [light1] (Ac-EAGEEVVCRVLDERLVRLRDGTRSYCGAF[Nle]V-NH2; disulfide 8-26), for which the fraction remaining (commonly the share of the starting amount still present when the sample was taken) at 24 h, 1.5 mg/mL in data set [1] came out at 88%.
On to `CC(=O)N[C@H](C(=O)N[C@H]1CSSC[C@@H](C(=O)N[C@@H](CO)C(N)=O)NC(=O)[C@H](CCC(N)=O)NC(=O)[C@H](CO)NC(=O)[C@H](C(C)C)NC(=O)[C@H](CC(C)C)NC(=O)[C@H](CC(C)C)NC(=O)[C@H](CC(C)C)NC(=O)[C@H](CC(C)C)NC(=O)[C@H](CCC(=O)O)NC(=O)[C@H](CCC(=O)O)NC(=O)[C@@H]2CCCN2C(=O)[C@H](Cc2ccc(O)cc2)NC(=O)[C@H](CCCNC(=N)N)NC(=O)[C@@H]2CCCN2C(=O)[C@H]([C@@H](C)O)NC(=O)[C@H](CCCNC(=N)N)NC(=O)[C@H](CCCCN)NC(=O)[C@H](Cc2ccc(O)cc2)NC(=O)[C@H](CC(C)C)NC(=O)CNC(=O)[C@H](Cc2c[nH]cn2)NC(=O)[C@H]([C@@H](C)O)NC1=O)[C@@H](C)O` [light3_E178L] (Ac-TCTHGLYKRTPRYPEELLLLVSQCS-NH2; disulfide 2-24), for which the “inhibition of HVEM/LIGHT complex formation” value with HVEM/LIGHT complex came to 19%. Also, the “reporter cell activation level” value in data set [2] is 74%.
For `CC(=O)N[C@H](C(=O)N[C@H]1CSSC[C@@H](C(=O)N[C@@H](CO)C(N)=O)NC(=O)[C@H](CCC(N)=O)NC(=O)[C@H](CO)NC(=O)[C@H](C(C)C)NC(=O)[C@H](CC(C)C)NC(=O)[C@H](CC(C)C)NC(=O)[C@H](CCC(=O)O)NC(=O)[C@H](CC(C)C)NC(=O)[C@H](CCC(=O)O)NC(=O)[C@H](CCC(=O)O)NC(=O)[C@@H]2CCCN2C(=O)[C@H](Cc2ccc(O)cc2)NC(=O)[C@H](CCCNC(=N)N)NC(=O)[C@@H]2CCCN2C(=O)[C@H]([C@@H](C)O)NC(=O)[C@H](CCCNC(=N)N)NC(=O)[C@H](CCCCN)NC(=O)[C@H](Cc2ccc(O)cc2)NC(=O)[C@H](CC(C)C)NC(=O)CNC(=O)[C@H](Cc2c[nH]cn2)NC(=O)[C@H]([C@@H](C)O)NC1=O)[C@@H](C)O` [light3] (Ac-TCTHGLYKRTPRYPEELELLVSQCS-NH2; disulfide 2-24) the same measures were 22% and 78%.
In data set [1], `CC(=O)N[C@@H](CCC(=O)O)C(=O)N[C@H]1CSSC[C@@H](C(=O)N[C@H](C(N)=O)C(C)C)NC(=O)[C@H](Cc2ccccc2)NC(=O)[C@H](C)NC(=O)CNC(=O)[C@H](Cc2ccccc2)NC(=O)[C@H](Cc2ccc(O)cc2)NC(=O)[C@H](CO)NC(=O)[C@H](CCCNC(=N)N)NC(=O)[C@H]([C@@H](C)O)NC(=O)CNC(=O)[C@H](CC(=O)O)NC(=O)[C@H](CCCNC(=N)N)NC(=O)[C@H](CC(C)C)NC(=O)[C@H](CCCNC(=N)N)NC(=O)[C@H](C(C)C)NC(=O)[C@H](CC(C)C)NC(=O)[C@H](CCCNC(=N)N)NC(=O)[C@H](CCC(=O)O)NC(=O)[C@H](CC(=O)O)NC(=O)[C@H](CC(C)C)NC(=O)[C@H](C(C)C)NC(=O)[C@H](CCCNC(=N)N)NC(=O)[C@H](C(C)C)NC(=O)[C@H](C(C)C)NC(=O)[C@H](C(C)C)NC(=O)[C@H](CCC(=O)O)NC(=O)[C@H](CCC(=O)O)NC(=O)CNC1=O` [light2] (Ac-ECGEEVVVRVLDERLVRLRDGTRSYFGAFCV-NH2; disulfide 2-30) showed a share remaining at 24 h, 1.5 mg/mL of 77%.
